From PMC7504814, “Coumarin and Moracin Derivatives from Mulberry Leaves (Morus alba L.) with Soluble Epoxide Hydrolase Inhibitory Activity” (Molecules, 2020)
Read-outs that look alike come from different tables or passages of the source.

Assays:
sEH [1] = molecular target: T1, sEH (Homo sapiens, UniProt P34913); test: sEH inhibition assay with PHOME fluorescent substrate; type: biochemical; details: for inhibition at 100 µM: compound at 100 µM, read-out: Inhibition of Compounds on sEH, 100 µM(%)
T1 construct: purchased Cayman Chemical Company 10011669
T1 sequence (P34913 1-555): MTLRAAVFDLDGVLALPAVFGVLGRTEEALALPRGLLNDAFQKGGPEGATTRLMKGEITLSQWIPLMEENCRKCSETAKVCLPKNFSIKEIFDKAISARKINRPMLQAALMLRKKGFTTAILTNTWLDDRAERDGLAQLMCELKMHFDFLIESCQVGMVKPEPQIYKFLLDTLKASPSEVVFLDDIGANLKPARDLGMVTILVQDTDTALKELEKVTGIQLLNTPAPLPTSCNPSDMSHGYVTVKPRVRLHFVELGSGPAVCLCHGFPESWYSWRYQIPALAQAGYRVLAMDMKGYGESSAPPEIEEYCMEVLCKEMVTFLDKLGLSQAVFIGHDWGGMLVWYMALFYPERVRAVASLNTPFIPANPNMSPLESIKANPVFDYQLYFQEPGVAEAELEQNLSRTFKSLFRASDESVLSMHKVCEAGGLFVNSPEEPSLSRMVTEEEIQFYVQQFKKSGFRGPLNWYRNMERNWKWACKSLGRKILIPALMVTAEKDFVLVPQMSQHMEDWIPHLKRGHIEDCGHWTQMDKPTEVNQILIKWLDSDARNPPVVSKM

sEH [2] = molecular target: T1, sEH; test: sEH kinetic assay (Lineweaver-Burk and Dixon plots); type: biochemical; details: PHOME 5–80 µM; for Ki: calculated from Dixon plots; for Type of inhibition: Lineweaver-Burk plots
[3] = PHOME substrate, mean ± SD (n = 3)
[4] = PHOME substrate, mean ± SD (n = 3), read-out: Inhibition of Compounds on sEH, IC50

SMILES | IC50 (sEH [1]) [nM] | inhibition at 100 µM (sEH [1]; [3]) [%] | Ki (sEH [2]) [nM] | IC50 (sEH [1]; [4]) [nM] | Type of inhibition (sEH [2])
O=c1ccc2cc(O)c(O)cc2o1 [Compound 1, aesculetin] | 6900 ± 500 | 100 | 1200 | – | –
COc1cc2ccc(=O)oc2cc1O [Compound 2, scopoletin] | – | 100 | 300 | 200 ± 100 | competitive
COc1cc2ccc(=O)oc2cc1OC1OC(CO)C(O)C(O)C1O (stereo not drawn) [Compound 3] | – | 100 | 5400 | 15900 ± 400 | competitive
COc1cc(O)cc(-c2cc3cc(O)c(OC)cc3o2)c1 [Compound 4, moracin B] | – | 100 | 1000 | 1100 ± 100 | competitive
COc1cc2cc(-c3cc(O)cc(O)c3)oc2cc1O [Compound 5, moracin J] | – | 100 | 2100 | 1200 ± 100 | mixed types of inhibitors
Oc1cc(O)cc(-c2cc3ccc(O)cc3o2)c1 [Compound 6, moracin M] | – | 100 | 1500 | 9900 ± 2200 | competitive
OCC1OC(Oc2cc(O)cc(-c3cc4ccc(O)cc4o3)c2)C(O)C(O)C1O (stereo not drawn) [Compound 7, moracin M 3’-O-β-glucopyranoside] | – | 100 | 5800 | 7700 ± 100 | mixed types of inhibitors
